Converted amounts (≈) assume the structure as drawn.
Experiments:
[1] = molecular target: T1, Calcitonin gene-related peptide type 1 receptor (Homo sapiens, UniProt O60894+Q16602); assay: Antagonist activity at CGRP receptor assessed as inhibition of CGRP-stimulated cAMP production by cell based assay in presence of 50% human serum; format: functional
[2] = molecular target: T1, Calcitonin gene-related peptide type 1 receptor; assay: Antagonist activity at CGRP receptor assessed as inhibition of CGRP-stimulated cAMP production by cell based assay; format: functional
[3] = molecular target: T1, Calcitonin gene-related peptide type 1 receptor; assay: Displacement of [125I]-CGRP from human recombinant CGRP receptor
[4] = Oral bioavailability in rat at 10 mg/kg, po administered as a suspension in 1% aqueous methylcellulose; format: ADME, organism-based; conditions: in vivo
[5] = species on record: Homo sapiens; assay: Ratio of IC50 for inhibition of [35S]-MK-499 binding to human ERG channel to IC50 for inhibition of cell based CGRP-stimulated cAMP production
[6] = Apparent permeability of compound; format: ADME; conditions: not told
[7] = Aqueous solubility of the compound at pH 7.4; conditions: buffer
[8] = Oral bioavailability in rat at 10 mg/kg, po administered as a solution in 1:1 imwitor:tween; format: ADME, organism-based; conditions: in vivo
[9] = Oral bioavailability in rhesus monkey at 10 mg/kg, po; format: ADME, organism-based, Macaca mulatta; conditions: in vivo
[10] = test system: Rattus norvegicus; assay: Oral bioavailability in rat assessed as N-((6S,9R)-6-(2,3-difluorophenyl)-3-(2-hydroxypropan-2-yl)-6,7,8,9-tetrahydro-5H-imidazo[1,2-a]azepin-9-yl)-2'-oxo-1',2'-dihydrospiro[piperidine-4,4'-pyrido[2,3-d][1,3]oxazine]-1-carboxamide at 10 mg/kg, po or iv normalized to AUC; format: ADME, organism-based; conditions: in vivo
[11] = test system: Canis familiaris; assay: Oral bioavailability in dog assessed as N-((6S,9R)-6-(2,3-difluorophenyl)-3-(2-hydroxypropan-2-yl)-6,7,8,9-tetrahydro-5H-imidazo[1,2-a]azepin-9-yl)-2'-oxo-1',2'-dihydrospiro[piperidine-4,4'-pyrido[2,3-d][1,3]oxazine]-1-carboxamide at 10 mg/kg, po or iv normalized to AUC; format: ADME, organism-based, Canis lupus familiaris; conditions: in vivo
[12] = test system: Rhesus monkey; assay: Oral bioavailability in rhesus monkey assessed as N-((6S,9R)-6-(2,3-difluorophenyl)-3-(2-hydroxypropan-2-yl)-6,7,8,9-tetrahydro-5H-imidazo[1,2-a]azepin-9-yl)-2'-oxo-1',2'-dihydrospiro[piperidine-4,4'-pyrido[2,3-d][1,3]oxazine]-1-carboxamide at 10 mg/kg, po or iv normalized to AUC; format: ADME, organism-based, Macaca mulatta; conditions: in vivo
[13] = Aqueous solubility of the compound at pH 3; format: physicochemical; conditions: buffer
[14] = Oral bioavailability in dog at 10 mg/kg, po; format: ADME, organism-based, Canis lupus familiaris; conditions: in vivo
[15] = test system: Rhesus monkey; assay: Inhibition of capsaicin-induced dermal vasodilation in orally dosed rhesus monkey; format: functional, Macaca mulatta

T1 sequence (Q16602 whole entry, one chain of several): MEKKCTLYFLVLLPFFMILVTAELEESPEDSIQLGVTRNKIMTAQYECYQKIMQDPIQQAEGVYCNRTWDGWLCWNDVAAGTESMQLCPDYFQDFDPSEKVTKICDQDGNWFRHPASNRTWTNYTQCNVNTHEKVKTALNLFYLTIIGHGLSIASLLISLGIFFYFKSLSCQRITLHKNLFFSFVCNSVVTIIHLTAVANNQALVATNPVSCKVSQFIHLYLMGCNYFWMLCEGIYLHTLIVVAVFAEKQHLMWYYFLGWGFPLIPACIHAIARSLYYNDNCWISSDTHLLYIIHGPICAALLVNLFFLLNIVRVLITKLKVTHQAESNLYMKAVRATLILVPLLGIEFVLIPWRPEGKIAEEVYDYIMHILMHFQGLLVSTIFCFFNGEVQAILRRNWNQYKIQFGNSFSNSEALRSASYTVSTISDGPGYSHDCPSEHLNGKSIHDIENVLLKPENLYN

Compound | IC50 [1] [nM] | IC50 [2] [nM] | Ki [3] [nM] | bioavailability [4] [%] | Ratio IC50 [5] | also measured
COC(C)(C)c1cnc2n1C[C@H](c1cccc(F)c1F)CC[C@H]2NC(=O)N1CCC(n2c(=O)[nH]c3ncccc32)CC1 | 0.61 | 0.31 | 0.04 | – | – | –
COCc1cnc2n1C[C@H](c1cccc(F)c1F)CC[C@H]2NC(=O)N1CCC(n2c(=O)[nH]c3ncccc32)CC1 | 1.9 | 0.63 | 0.38 | – | – | –
O=C(N[C@@H]1CC[C@@H](c2cccc(F)c2F)Cn2c(-c3ccccc3)cnc21)N1CCC(n2c(=O)[nH]c3ncccc32)CC1 | 34 | 2.6 | 1.1 | – | – | –
CN(C)C(=O)c1cnc2n1C[C@H](c1cccc(F)c1F)CC[C@H]2NC(=O)N1CCC(n2c(=O)[nH]c3ncccc32)CC1 | 7.4 | 4.1 | 2.8 | – | – | –
Cc1cnc2n1C[C@H](c1cccc(F)c1F)CC[C@H]2NC(=O)N1CCC(n2c(=O)[nH]c3ncccc32)CC1 | 12 | 4.1 | 2.2 | – | – | –
O=C1Nc2ncccc2C2(CCN(C(=O)N[C@@H]3CC[C@@H](c4cccc(F)c4F)Cn4c(CC(F)(F)F)nnc43)CC2)O1 | 1.3 | 0.83 | 0.19 | < 1 | > 36000 | –
O=C(N[C@@H]1CC[C@@H](c2cccc(F)c2F)CN(CC(F)(F)F)C1=O)N1CCC(n2c(=O)[nH]c3ncccc32)CC1 [TELCAGEPANT] | – | – | – | – | – | Papp [6]: 21 ×10⁻⁶ cm/s; solubility [7]: 30 µg/mL (≈ 53 µM)
O=C(N[C@@H]1CC[C@@H](c2cccc(F)c2F)Cn2c(CC(F)(F)F)cnc21)N1CCC2(CC1)C(=O)Nc1ncccc12 | 4 | 0.94 | 0.61 | 47 | 9300 | –
CCOC(C)(C)c1cnc2n1C[C@H](c1cccc(F)c1F)CC[C@H]2NC(=O)N1CCC2(CC1)OC(=O)Nc1ncccc12 | 2.9 | 0.32 | 0.05 | – | 23000 | –
O=C(N[C@@H]1CC[C@@H](c2cccc(F)c2F)Cn2cc(CO)nc21)N1CCC(n2c(=O)[nH]c3ncccc32)CC1 | 26 | 12 | 3.2 | – | – | –
COC(C)(C)c1cnc2n1C[C@H](c1cccc(F)c1F)CC[C@H]2NC(=O)N1CCC2(CC1)C(=O)Nc1ncccc12 | 1.4 | 0.82 | 0.4 | – | 9700 | bioavailability [8]: 5%
O=C(N[C@@H]1CC[C@@H](c2cccc(F)c2F)Cn2c(-c3nccs3)cnc21)N1CCC(n2c(=O)[nH]c3ncccc32)CC1 | 64 | 3.6 | 1.1 | – | – | –
COC(C)(C)c1cnc2n1C[C@H](c1cccc(F)c1F)CC[C@H]2NC(=O)N1CCC2(CC1)OC(=O)Nc1ncccc12 | 0.63 | 0.24 | 0.05 | 16 | 32000 | Papp [6]: 24 ×10⁻⁶ cm/s; bioavailability [9]: 5%; F [10]: 26%; F [11]: 14%; F [12]: 29%; solubility [13]: 1100 µg/mL (≈ 1890 µM); bioavailability [14]: 10%
O=C(N[C@@H]1CC[C@@H](c2cccc(F)c2F)Cn2c(CC(F)(F)F)nnc21)N1CCC2(CC1)C(=O)Nc1ncccc12 | 2.7 | 2.3 | 0.48 | – | > 13000 | bioavailability [8]: 6%
COCc1cnc2n1C[C@H](c1cccc(F)c1F)CC[C@H]2NC(=O)N1CCC2(CC1)C(=O)Nc1ncccc12 | 4.3 | 1.7 | 0.62 | – | 9500 | bioavailability [8]: 21%
O=C(N[C@@H]1CC[C@@H](c2cccc(F)c2F)Cn2cc(CC(F)(F)F)nc21)N1CCC(n2c(=O)[nH]c3ncccc32)CC1 | 33 | 7.2 | 3.9 | – | – | –
O=C(N[C@@H]1CC[C@@H](c2cccc(F)c2F)Cn2c(C3CC3)nnc21)N1CCC(n2c(=O)[nH]c3ncccc32)CC1 | 2.4 | 1.6 | 1 | 2 | – | Papp [6]: 4 ×10⁻⁶ cm/s
CC(C)(O)c1cnc2n1C[C@H](c1cccc(F)c1F)CC[C@H]2NC(=O)N1CCC2(CC1)OC(=O)Nc1ncccc12 | 1.5 | 0.86 | 0.29 | 3 | 23000 | EC90 [15]: 330 nM
CC(C)c1cnc2n1C[C@H](c1cccc(F)c1F)CC[C@H]2NC(=O)N1CCC(n2c(=O)[nH]c3ncccc32)CC1 | 3.2 | 0.62 | 0.69 | – | – | –
Cc1cn2c(n1)[C@H](NC(=O)N1CCC(n3c(=O)[nH]c4ncccc43)CC1)CC[C@@H](c1cccc(F)c1F)C2 | 28 | 8.7 | 4 | – | – | –
O=C(N[C@@H]1CC[C@@H](c2cccc(F)c2F)Cn2ccnc21)N1CCC(n2c(=O)[nH]c3ncccc32)CC1 | 19 | 6.7 | 3.1 | – | – | –
O=C(N[C@@H]1CC[C@@H](c2cccc(F)c2F)Cn2c(CO)cnc21)N1CCC(n2c(=O)[nH]c3ncccc32)CC1 | 12 | 7.9 | 2.5 | – | – | –
CC(C)(OCC(F)(F)F)c1cnc2n1C[C@H](c1cccc(F)c1F)CC[C@H]2NC(=O)N1CCC2(CC1)OC(=O)Nc1ncccc12 | 13 | 0.65 | 0.16 | – | 6100 | –
O=C1Nc2ncccc2C2(CCN(C(=O)N[C@@H]3CC[C@@H](c4cccc(F)c4F)Cn4c(CC(F)(F)F)cnc43)CC2)O1 | 2 | 0.41 | 0.07 | 33 | – | bioavailability [9]: 17%; EC90 [15]: 1000 nM; bioavailability [14]: 28%
COCc1cnc2n1C[C@H](c1cccc(F)c1F)CC[C@H]2NC(=O)N1CCC2(CC1)OC(=O)Nc1ncccc12 | 1.7 | 0.61 | 0.14 | 15 | 8900 | –
O=C(N[C@@H]1CC[C@@H](c2cccc(F)c2F)Cn2c(C3(C(F)(F)F)CC3)cnc21)N1CCC2(CC1)C(=O)Nc1ncccc12 | 8.6 | 1.4 | 0.63 | – | 880 | –
CC1(c2cnc3n2C[C@H](c2cccc(F)c2F)CC[C@H]3NC(=O)N2CCC3(CC2)OC(=O)Nc2ncccc23)CCCO1 (some centres not stated) | 0.76 | 0.21 | 0.036 | 8 | 17000 | –
CNCCc1cnc2n1C[C@H](c1cccc(F)c1F)CC[C@H]2NC(=O)N1CCC(n2c(=O)[nH]c3ncccc32)CC1 | 15 | 12 | 5.7 | – | – | –
O=C(N[C@@H]1CC[C@@H](c2cccc(F)c2F)Cn2c(CC(F)(F)F)cnc21)N1CCC(n2c(=O)[nH]c3ncccc32)CC1 | 2.6 | 0.37 | 0.14 | 35 | – | Papp [6]: 24 ×10⁻⁶ cm/s
CCC(CC)(OC)c1cnc2n1C[C@H](c1cccc(F)c1F)CC[C@H]2NC(=O)N1CCC2(CC1)OC(=O)Nc1ncccc12 | 0.42 | 0.25 | 0.039 | – | 3200 | –

From ChEMBL document CHEMBL1770088, “Orally bioavailable imidazoazepanes as calcitonin gene-related peptide (CGRP) receptor antagonists: discovery of MK-2918” (Bioorg Med Chem Lett, 2011)
